Measurements reported in patent US11066399B2, “Ferroportin inhibitors” (Vifor (International) AG, priority 2015, dated 2021).
Marks after values point to notes of the source that are not given here.

What was measured:
Hbb th3/+ mice [1] = experiment: Improvement of anemia, ineffective erythropoiesis and iron overload in a mouse model of β-thalassemia intermedia; type: in vivo; settings: hemoglobin difference to vehicle
naïve WT C57BL/6 mice = experiment: Hypoferremia in naïve mice; type: in vivo, mouse; settings: Mus musculus, po, 3 h, read-out: Serum Iron Reduction at 3 h (%)
Method: Female C57BL/6 mice (Janvier, France) at age of 9 weeks were fed a standard diet (Harlan Provimi Kliba 3436) and treated per os (p.o.) with compounds or the corresponding amount of vehicle at a volume of 10 ml/kg body weight. Fpn inhibitors were formulated in 0.5% methylcellulose/water or 20% cremophor EL/water and dosed p.o. in mice at 10, 30 or 100 mg/kg body weight. Three hours later, mice were pre-terminally anesthetized in isoflurane chambers and blood was collected by retro-orbital bleeding. Mice were sacrificed by cervical dislocation and spleens, livers and duodena were harvested and used for biomarker analysis. All experiments have been conducted in compliance with the license approved by the responsible veterinarian authorities. Serum was isolated by centrifugation of blood into gel-containing microtainers and serum iron was determined by the MULTIGENT Iron assay (Abbott Diagnostics, 6K95). Eight mice per group were used and one-way ANOVA with Bonferroni's multiple comparison test was performed to analyze the statistical differences between the experimental groups.
Relative serum iron reduction at 3 h after dosing was calculated by subtracting the average of serum iron values of animals dosed with the Fpn inhibitor from that of vehicle-treated animals. The difference in average serum iron values between vehicle and compound treated groups was then divided by the average of serum iron of the vehicle control group and listed as percentage.

anemic Wistar rats = experiment: Prevention of iron absorption in anemic rats; type: in vivo, rat; settings: 1 h before 0.5 mg/kg ferrous sulfate
Method: To assess the in vivo efficacy of ferroportin (Fpn) inhibitors to block iron absorption, a series of Fpn inhibitors were tested in an anemic rat model for iron absorption. Wistar rats (3-4 weeks old, n=5, Janvier Labs) were fed a low iron diet (Provimi-Kliba, Cat. 2039) until their hemoglobin (Hb) values reach 7-8 g/dl one day before dosing of the Fpn inhibitor compounds. One hour before oral application of 0.5 mg/kg of ferrous sulfate, test compounds formulated in methyl cellulose or Cremophor were dosed orally. Blood samples were taken by tail vein puncture one hour before administration of iron (−1 h), immediately after dosing of the Fpn inhibitors (0 h) and one hour (1 h), three hours (3 h) and occasionally up to 6 hours (6 h) after dosing of the test compounds. Serum iron levels were measured (Abbott Diagnostics, Cat. 6K95) and inhibition of the rise of serum iron three hours after dosing of the test compound was calculated as a measure for efficacy of the Fpn inhibitors in blocking iron absorption (Table 7).

b2m−/− mice = experiment: Correction of hyperferremia in beta2-microglobulin deficient mice; type: in vivo, mouse; settings: male b2m−/− mice, Dose 20 mg/kg oral, blood collected 1 (#) hour after dosing
Method: Female and male homozygous b2m−/− mice were supplied from Jackson Laboratories (B6.129P2-B2mtm1Unc/J, Stock Number: 002087) at age of 6 to 7 weeks and fed standard diet (Harlan Provimi Kliba 3436) ad libitum. Age and gender matched WT C57BL/6 mice are supplied by Charles River. To study the acute effects of ferroportin (Fpn) inhibitors in iron overload b2m−/− mice were treated with compounds or the corresponding amount of vehicle at a volume of 10 ml/kg body weight. Fpn inhibitor compounds were formulated in 0.5% methylcellulose/water or 20% cremophor EL/water and dosed p.o. in mice at 50 mg/kg body weight. WT controls received only vehicle. Three hours later, mice were pre-terminally anesthetized in isoflurane chambers and blood was collected by retro-orbital bleeding. Mice were sacrificed by cervical dislocation and spleens, livers and duodena were harvested and used for biomarker analysis. All experiments have been performed in compliance with license approved by the responsible veterinarian authorities. Serum was isolated by centrifugation of blood into gel-containing microtainers (BD Biosciences) and serum iron was determined by the MULTIGENT Iron assay (Abbott Diagnostics, Cat. 6K95). Four to nine mice per group were used and one-way ANOVA with Bonferroni's multiple comparison test was applied to analyze the statistical differences between the experimental groups.
Blood was collected 1 (#) or 3 (##) hours after oral administration of the indicated doses of Fpn inhibitors to beta2-microglobulin deficient mice and serum iron concentrations were measured. Relative reduction (%) of serum iron levels are shown, which were calculated by subtracting the average of serum iron values of animals dosed with the Fpn inhibitor from that of vehicle-treated animals. The difference in average serum iron values between vehicle and compound treated groups was then divided by the average of serum iron of the vehicle control group and listed as percentage.

Hbb th3/+ mice [2] = experiment: Improvement of anemia, ineffective erythropoiesis and iron overload in a mouse model of β-thalassemia intermedia; type: in vivo; settings: % change to vehicle; for Decrease in serum iron: dosed for 3 h
Method: The efficacy of Fpn inhibitors was investigated using a mouse model of transfusion-independent β-thalassemia. Mice with heterozygous deletion of β1 and β2 globin genes (called Hbb th3/+ mice) develop transfusion-independent anemia, ineffective erythropoiesis, splenomegaly and secondary iron overload in spleen, liver and kidneys. […] Hbb th3/+ mice were dosed twice daily with either compound at 20 or 60 mg/kg or with methylcellulose (10 ml/kg, Sigma, Cat. 274429) as a vehicle. Between both doses mice had access to drinking water supplemented with 1 mM ^58Fe(II)-sulfate (Vifor Pharma, Batch No. ROR 3096) and 10 mM ascorbic acid (Sigma, Cat. 795437) for 6 h. […] Water without ^58Fe(II)-Sulfate and ascorbic acid was provided during the remaining 18 h. Dosing of Fpn inhibitors or vehicle followed by exposure to iron-containing water was repeated for 20 to 46 days in individual experiments.
Additional hematologic parameters were measured in terminal blood using automated blood cell analyzer.
The inefficient erythropoiesis of Hbb th3/+ mice causes excessive proliferation of erythroid precursors in spleen, leading to splenomegaly.
Erythroferrone is produced by erythrocyte precursors proliferating massively in spleens of Hbb th3/+ mice as a consequence of extramedullar erythropoiesis.
Increased iron demand due to inefficient erythropoiesis and chronically low hepcidin levels in patients with thalassemia causes organ iron loading and associated morbidities, such as hepatocellular carcinoma and heart failure (Rivella S. Haematologica, 2015). Hbb th3/+ mice absorb excessive amounts of iron as a consequence of inadequately low hepcidin levels relative to the high iron content in liver, spleen and kidney and increased ferroportin expression in duodenum (Gardenghi S., Blood, 2007).
Additionally, reactive oxygen species (ROS) were detected in bone marrow cells using a fluorescent indicator, CM-H2DCFDA (Thermo Fisher Scientific, Cat. C6827).
Table 10. Efficacy of Ferroportin inhibitors in a mouse model of thalassemia intermedia (Hbb th3/+ mice). […] Data are expressed as difference to the vehicle control group for hemoglobin and as % change to the vehicle control group for all other parameter shown

`O=C(NCc1ncccc1F)c1cnc(C2CN(CCc3nc4ccccc4[nH]3)C2)o1` [Example 2] was tested, and the “Correction of anemia at day 20-48” value (Hbb th3/+ mice [1]; 20 mg/kg twice daily) was 3 g/L and the “Correction of anemia at day 20-48” value (Hbb th3/+ mice [1]; 60 mg/kg twice daily) was 11 g/L.
Work on `O=C(NCc1ncccc1F)c1cnn(CCNCCc2cc3ccccc3[nH]2)c1` [Example 277] yielded an inhibition in vivo at 10 mg/kg (naïve WT C57BL/6 mice) of 6%, an inhibition in vivo at 30 mg/kg (naïve WT C57BL/6 mice) of 21% and an inhibition in vivo at 100 mg/kg (naïve WT C57BL/6 mice) of 54%.
In the case of `O=C(NCc1ncccc1F)c1cnc(CCNCCc2nc3ccccc3[nH]2)o1` [Example 1], the “Serum Iron Inhibition (%) at 3 h” value (anemic Wistar rats; Dose 10 mg/kg oral) is reported as 42.6** % and the “Serum Iron Inhibition (%) at 3 h” value (anemic Wistar rats; Dose 30 mg/kg oral) is reported as 64.9*** %.
With `O=C(NCc1ncccc1F)c1csc(CCNCc2nc3ccccc3[nH]2)n1` [Example 40] the “Serum Iron Reduction (%)” value (b2m−/− mice) was 35** %, the “Decrease in serum erythropoietin” value (Hbb th3/+ mice [2]; 20 mg/kg twice daily for 20-46 days) was 6% and the “Decrease in serum iron” value (Hbb th3/+ mice [2]; 20 mg/kg) was 28%. For the same compound, the “Decrease in serum iron” value (Hbb th3/+ mice [2]; 60 mg/kg) was 58%.
